# Source: paper PMC5688156, “The natural product carolacton inhibits folate-dependent C1 metabolism by targeting FolD/MTHFD” (Nature Communications, 2017)
# What was measured:
# ecFolD G8S = target: T1, ecFolD G8S (Escherichia coli, UniProt P24186, G8S); test: ecFolD G8S mutant dehydrogenase (DH) enzyme assay; assay type: biochemical, E. coli
# T1 construct: His-tag (TEV-cleavable, vector pHis-TEV); made in house; host or cells: E. coli BL21 (DE3)
# Experimental: (6R,S)-5,10-Methylene-5,6,7,8-tetrahydrofolic acid ((6R,S)-5,10-CH2-THF) calcium salt and (6R,S)-5,10-Methenyl-5,6,7,8-tetrahydrofolic acid ((6R,S)-5,10-CH=THF) chloride were purchased from Schircks Laboratories (Bauma, Switzerland) and used as substrates for FolD dehydrogenase and cyclohydrolase enzyme assays, respectively. Only the R-isomer, which accounts for 50% of (6R,S)-5,10-CH2-THF and (6R,S)-5,10-CH=THF, respectively, is used by the enzyme. (6R,S)-5,10-CH2-THF was dissolved in N2-spargeled basic buffer (50 mM Tris-HCl (pH 8.0), 100 mM β-mercaptoethanol) as described by Varshney et al.[25]. (6R,S)-5,10-CH=THF was dissolved in DMSO as a 100 mM stock solution.
# Because FolD is a bifunctional enzyme, dehydrogenase and cyclohydrolase activities were determined for FolD enzyme kinetics, respectively. The dehydrogenase activity of FolD was assayed for its substrate 5,10-CH2-THF and cofactor NADP^+ (in the case of MTHFD2, NAD^+ was used as the cofactor) based on monitoring the formation of 5,10-CH=THF, while the cyclohydrolase activity of FolD was determined for its substrate 5,10-CH=THF by monitoring the hydrolysis of […]. The enzyme kinetics for the dehydrogenase activity of all FolDs except hsMTHFD1_DC were determined at 30 °C in 50 mM Tris-HCl (pH 7.5), 30 mM β-mercaptoethanol. […]
# spFolD = target: T2, spFolD (Streptococcus pneumoniae serotype 4, UniProt Q97RI9); test: SPR binding to spFolD; design: species or system S. pneumoniae
# T2 construct: His-tag (TEV-cleavable, vector pHis-TEV); made in house; host or cells: E. coli BL21 (DE3)
# T2 sequence (Q97RI9 whole entry): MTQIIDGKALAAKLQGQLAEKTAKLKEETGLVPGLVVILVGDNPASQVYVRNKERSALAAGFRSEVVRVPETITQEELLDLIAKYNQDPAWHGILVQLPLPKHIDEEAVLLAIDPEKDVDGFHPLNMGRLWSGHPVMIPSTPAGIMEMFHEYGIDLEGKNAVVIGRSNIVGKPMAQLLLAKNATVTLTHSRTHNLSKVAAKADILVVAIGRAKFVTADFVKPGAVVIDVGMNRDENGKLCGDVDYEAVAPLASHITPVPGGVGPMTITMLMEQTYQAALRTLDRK
# Experimental: All surface plasmon resonance (SPR) experiments described in this study were performed on a Biacore X100 system. Different FolDs with or without His-tag were coupled on CM5 sensor chips (GE Healthcare) by the amine coupling method using a kit from GE Healthcare Life Sciences (Freiburg, Germany). A pH scouting process was performed before protein immobilization to test the most appropriate buffer and the protein concentration for protein coupling. Finally, 20 μg/mL of ecFolD in 10 mM maleate buffer (pH 6.8), 30 μg/mL of ecFolD Q98H in 10 mM maleate buffer (pH 6.3), 40 μg/mL of ecFolD K54N in 10 mM maleate buffer (pH 5.8), 20 μg/mL of spFolD in 10 mM maleate buffer (pH 6.0) and 15 μg/mL of MTHFD2 (His-tag cleaved) in 10 mM maleate buffer (pH 6.8) were used for coupling. In the protein immobilization procedure, the contact time was calculated based on the pH scouting results to achieve ~3000–5000 relative resonance units (RU). The buffer used in the SPR assays was 1× HBS-P buffer (10 mM HEPES pH 7.4, 150 mM NaCl, 0.05% Tween 20). The 1 mM stock solution of carolacton was prepared in 1× HBS-P buffer and diluted to different concentration ranges by two-fold serial dilution. In the SPR assay, the association time was 180 s and the dissociation time was 600 s. Data analysis was performed using the Biacore evaluation software. […]
compound,measurement,setting,value
CO[C@H](CC(=O)O)[C@@H](C)C(=O)[C@H](C)/C=C(\C)[C@H]1OC(=O)[C@H](O)[C@H](O)/C=C/[C@H](C)CCC[C@@H]1C [carolacton],IC50,ecFolD G8S,86.5 nM
same,IC80,"ecFolD G8S; read-out: IC80, carolacton inhibition on DH activity",737 nM
same,Kd,spFolD,27 nM
same,koff,spFolD,0.0316 s⁻¹
